Reference: patent US8877748B2, “Heterocyclic fused anthraquinone derivatives, manufacturing method and pharmaceutical composition using thereof” (National Defense Medical Center, priority 2012, dated 2014)

Tests used:
[1] = system: PC-3 prostate cancer cell line; test: SRB assay cell viability, PC-3 prostate cancer cell line; format: cell-based, human; conditions: Homo sapiens, PC-3 prostate cancer cell line, Table II prints no unit, μM printed, read-out: SRB assay: 50% inhibition of cancer cell proliferation of sample concentration (IC50) of PC-3 prostate cancer cell line
CCRF-CEM = test: NCI screening platform one-dose single concentration screening, leukemia CCRF-CEM; format: cell-based, human; conditions: 10 μM
HL-60, TB = test: NCI one-dose screening, leukemia HL-60, TB; format: cell-based, human; conditions: 10 μM
MOLT-4 = test: NCI one-dose screening, leukemia MOLT-4; format: cell-based, human; conditions: 10 μM
SR = test: NCI one-dose screening, leukemia SR; format: cell-based, human; conditions: 10 μM
PRMI-8226 cell line = test: NCI one-dose screening, leukemia PRMI-8226; format: cell-based, human; conditions: 10 μM
K562cell line = test: NCI one-dose screening, leukemia K562; format: cell-based, human; conditions: 10 μM
EKVX = test: NCI one-dose screening, non-small cell lung cancer EKVX; format: cell-based, human; conditions: 10 μM
HOP-62 = test: NCI one-dose screening, non-small cell lung cancer HOP-62; format: cell-based, human; conditions: 10 μM
HOP-92 = test: NCI one-dose screening, non-small cell lung cancer HOP-92; format: cell-based, human; conditions: 10 μM
NCI-H226 = test: NCI one-dose screening, non-small cell lung cancer NCI-H226; format: cell-based, human; conditions: 10 μM
NCI-H23 = test: NCI one-dose screening, non-small cell lung cancer NCI-H23; format: cell-based, human; conditions: 10 μM
NCI-H322M = test: NCI one-dose screening, non-small cell lung cancer NCI-H322M; format: cell-based, human; conditions: 10 μM; Non-small cell lung cancer
NCI-H460 = test: NCI one-dose screening, non-small cell lung cancer NCI-H460; format: cell-based, human; conditions: 10 μM
NCI-H522 = test: NCI one-dose screening, non-small cell lung cancer NCI-H522; format: cell-based, human; conditions: 10 μM
A549/ATCC = test: NCI one-dose screening, non-small cell lung cancer A549/ATCC; format: cell-based, human; conditions: 10 μM
COLO 205 = test: NCI one-dose screening, colon cancer COLO 205; format: cell-based, human; conditions: 10 μM
HCC-2998 = test: NCI one-dose screening, colon cancer HCC-2998; format: cell-based, human; conditions: 10 μM
HCT-116 = test: NCI one-dose screening, colon cancer HCT-116; format: cell-based, human; conditions: 10 μM
HCT-15 = test: NCI one-dose screening, colon cancer HCT-15; format: cell-based, human; conditions: 10 μM
KM12 = test: NCI one-dose screening, colon cancer KM12; format: cell-based, human; conditions: 10 μM
SF-268 = test: NCI one-dose screening, CNS cancer SF-268; format: cell-based, human; conditions: 10 μM
SF-295 = test: NCI one-dose screening, CNS cancer SF-295; format: cell-based, human; conditions: 10 μM
SF-539 = test: NCI one-dose screening, CNS cancer SF-539; format: cell-based, human; conditions: 10 μM
SNB-19 = test: NCI one-dose screening, CNS cancer SNB-19; format: cell-based, human; conditions: 10 μM
SNB-75 = test: NCI one-dose screening, CNS cancer SNB-75; format: cell-based, human; conditions: 10 μM
U251 = test: NCI one-dose screening, CNS cancer U251; format: cell-based, human; conditions: 10 μM
LOX IMVI = test: NCI one-dose screening, melanoma LOX IMVI; format: cell-based, human; conditions: 10 μM
MALME-3M = test: NCI one-dose screening, melanoma MALME-3M; format: cell-based, human; conditions: 10 μM
M14 = test: NCI one-dose screening, melanoma M14; format: cell-based, human; conditions: 10 μM
UACC-62 = test: NCI one-dose screening, melanoma UACC-62; format: cell-based, human; conditions: 10 μM
UACC-257 = test: NCI one-dose screening, melanoma UACC-257; format: cell-based, human; conditions: 10 μM
SK-MEL-2 = test: NCI one-dose screening, melanoma SK-MEL-2; format: cell-based, human; conditions: 10 μM
SK-MEL-28 = test: NCI one-dose screening, melanoma SK-MEL-28; format: cell-based, human; conditions: 10 μM
SK-MEL-5 = test: NCI one-dose screening, melanoma SK-MEL-5; format: cell-based, human; conditions: 10 μM
IGROV1 = test: NCI one-dose screening, ovarian cancer IGROV1; format: cell-based, human; conditions: 10 μM
OVCAR-3 = test: NCI one-dose screening, ovarian cancer OVCAR-3; format: cell-based, human; conditions: 10 μM
OVCAR-4 = test: NCI one-dose screening, ovarian cancer OVCAR-4; format: cell-based, human; conditions: 10 μM
OVCAR-8 = test: NCI one-dose screening, ovarian cancer OVCAR-8; format: cell-based, human; conditions: 10 μM
SK-OV-3 = test: NCI one-dose screening, ovarian cancer SK-OV-3; format: cell-based, human; conditions: 10 μM
786-O = test: NCI one-dose screening, renal cancer 786-O; format: cell-based, human; conditions: 10 μM
CAKI-1 = test: NCI one-dose screening, renal cancer CAKI-1; format: cell-based, human; conditions: 10 μM
[2] = NCI one-dose screening, renal cancer A489; format: cell-based, human; conditions: 10 μM
SN12C = test: NCI one-dose screening, renal cancer SN12C; format: cell-based, human; conditions: 10 μM
TK-10 = test: NCI one-dose screening, renal cancer TK-10; format: cell-based, human; conditions: 10 μM
UO-31 = test: NCI one-dose screening, renal cancer UO-31; format: cell-based, human; conditions: 10 μM
RXF, 393 = test: NCI one-dose screening, renal cancer RXF, 393; format: cell-based, human; conditions: 10 μM
DU145 = test: NCI one-dose screening, prostate cancer DU145; format: cell-based, human; conditions: 10 μM
PC-3 = test: NCI one-dose screening, prostate cancer PC-3; format: cell-based, human; conditions: 10 μM
MCF7 = test: NCI one-dose screening, breast cancer MCF7; format: cell-based, human; conditions: 10 μM
HS 578-T = test: NCI one-dose screening, breast cancer HS 578-T; format: cell-based, human; conditions: 10 μM; Breast cancer
MDA-MB-231/ATCC = test: NCI one-dose screening, breast cancer MDA-MB-231/ATCC; format: cell-based, human; conditions: 10 μM
MDA-MB-468 = test: NCI one-dose screening, breast cancer MDA-MB-468; format: cell-based, human; conditions: 10 μM
NCl/ADR-RES = test: NCI one-dose screening, breast cancer NCl/ADR-RES; format: cell-based, human; conditions: 10 μM; listed under Ovarian cancer
BT-549 = test: NCI one-dose screening, breast cancer BT-549; format: cell-based, human; conditions: 10 μM
T-47D = test: NCI one-dose screening, breast cancer T-47D; format: cell-based, human; conditions: 10 μM
MDA, -MB-435 = test: NCI one-dose screening, breast cancer MDA, -MB-435; format: cell-based, human; conditions: 10 μM; listed under Melanoma
human tumor cell lines = test: NCI one-dose screening, Mean / Delta / Range of growth percent over all tested cell lines; format: cell-based; conditions: 10 μM

In the case of `O=C1c2ccccc2C(=O)c2c1cc(N1CCOCC1)c1nsnc21` [C10, 4-morpholino-anthra[2,1-c][1,2,5] thiadiazol-6,11-dione], the IC50 [1] is reported as 3.75 µM, the “Growth Percent CCRF-CEM” value (CCRF-CEM) is reported as 48.31% and the “Growth Percent HL-60(TB)” value (HL-60, TB) is reported as 66.73%. The “Growth Percent MOLT-4” value (MOLT-4) was 47.64%, the “Growth Percent SR” value (SR) was 68.92% and the “Growth Percent RPMI-8226” value (PRMI-8226 cell line) was 61.17%. For the same molecule, the “Growth Percent K562” value (K562cell line) was 48.27%, the “Growth Percent EKVX” value (EKVX) was 84.52% and the “Growth Percent HOP-62” value (HOP-62) was 60.63%. For the same molecule, the “Growth Percent HOP-92” value (HOP-92) was 90.59%, the “Growth Percent NCI-H226” value (NCI-H226) was 87.42% and the “Growth Percent NCI-H23” value (NCI-H23) was 39.65%. For the same molecule, the “Growth Percent NCI-H322M” value (NCI-H322M) was 98.00%, the “Growth Percent NCI-H460” value (NCI-H460) was 88.64% and the “Growth Percent NCI-H522” value (NCI-H522) was 79.03%. The “Growth Percent A549/ATCC” value (A549/ATCC) was 100.58%, the “Growth Percent COLO 205” value (COLO 205) was 104.19% and the “Growth Percent HCC-2998” value (HCC-2998) was 107.48%. The “Growth Percent HCT-116” value (HCT-116) was 18.89%, the “Growth Percent HCT-15” value (HCT-15) was 55.97% and the “Growth Percent KM12” value (KM12) was 83.91%. The “Growth Percent SF-268” value (SF-268) was 75.83%, the “Growth Percent SF-295” value (SF-295) was 95.84. Percent and the “Growth Percent SF-539” value (SF-539) was 88.62%. The “Growth Percent SNB-19” value (SNB-19) was 84.82%, the “Growth Percent SNB-75” value (SNB-75) was 51.11% and the “Growth Percent U251” value (U251) was 59.35%. For the same molecule, the “Growth Percent LOX IMVI” value (LOX IMVI) was 13.57%, the “Growth Percent MALME-3M” value (MALME-3M) was 61.99% and the “Growth Percent M14” value (M14) was 75.06%. The “Growth Percent UACC-62” value (UACC-62) was 62.43%, the “Growth Percent UACC-257” value (UACC-257) was 79.36% and the “Growth Percent SK-MEL-2” value (SK-MEL-2) was 88.38%. For the same molecule, the “Growth Percent SK-MEL-28” value (SK-MEL-28) was 104.55%, the “Growth Percent SK-MEL-5” value (SK-MEL-5) was 15.98% and the “Growth Percent IGROV1” value (IGROV1) was 54.88%. For the same molecule, the “Growth Percent OVCAR-3” value (OVCAR-3) was 6.64%, the “Growth Percent OVCAR-4” value (OVCAR-4) was 28.69% and the “Growth Percent OVCAR-8” value (OVCAR-8) was 43.29%. For the same molecule, the “Growth Percent SK-OV-3” value (SK-OV-3) was 104.65%, the “Growth Percent 786-0” value (786-O) was 109.16% and the “Growth Percent CAKI-1” value (CAKI-1) was 61.73%. The “Growth Percent A498” value [2] was 88.30%, the “Growth Percent SN12C” value (SN12C) was 71.73% and the “Growth Percent TK-10” value (TK-10) was 131.28%. For the same molecule, the “Growth Percent UO-31” value (UO-31) was 53.93%, the “Growth Percent RXF 393” value (RXF, 393) was 98.14% and the “Growth Percent DU145” value (DU145) was 68.98%. For the same molecule, the “Growth Percent PC-3” value (PC-3) was 56.59%, the “Growth Percent MCF7” value (MCF7) was 55.12% and the “Growth Percent HS 578T” value (HS 578-T) was 88.35%. The “Growth Percent MDA-MB-231/ATCC” value (MDA-MB-231/ATCC) was 39.16%, the “Growth Percent MDA-MB-468” value (MDA-MB-468) was 45.59% and the “Growth Percent NCI/ADR-RES” value (NCl/ADR-RES) was 43.58%. For the same molecule, the “Growth Percent BT-549” value (BT-549) was 93.78%, the “Growth Percent T-47D” value (T-47D) was 60.04% and the “Growth Percent MDA-MB-435” value (MDA, -MB-435) was 0.52%. For the same molecule, the melting point was 259 to 260 °C, the “Growth Percent Delta” value (human tumor cell lines; delta over all cell lines) was 67.45% and the “Growth Percent Mean” value (human tumor cell lines; mean over all cell lines) was 67.97%. The “Growth Percent Range” value (human tumor cell lines; range over all cell lines) was 130.76%.
